Test results: PubChem BioAssay AID1259407 (Chemical Carcinogenesis Research Information System (CCRIS), 2018)
Calls of active or inactive are those of the source. The rule behind the calls is not given here.

Tested on: CCRIS mutagenicity, Ames/micronucleus/aberration tests
Assay: CCRIS mutagenicity studies
[1] = Test System: AMES SALMONELLA TYPHIMURIUM, Strain/Indicator: TA1535, Metabolic Activation: NONE, Method: STANDARD PLATE
[2] = Test System: E. COLI, Strain/Indicator: WP2 UVRA, Metabolic Activation: HAMSTER, LIVER, S-9, AROCLOR 1254, Method: STANDARD PLATE
[3] = Test System: E. COLI, Strain/Indicator: WP2 UVRA, Metabolic Activation: HAMSTER, LIVER, S-9, Method: STANDARD PLATE
[4] = Test System: E. COLI, Strain/Indicator: WP2 UVRA, Metabolic Activation: MOUSE, LIVER, S-9, AROCLOR 1254, Method: STANDARD PLATE
[5] = Test System: E. COLI, Strain/Indicator: WP2 UVRA, Metabolic Activation: MOUSE, LIVER, S-9, Method: STANDARD PLATE
[6] = Test System: E. COLI, Strain/Indicator: WP2 UVRA, Metabolic Activation: NONE, Method: STANDARD PLATE
[7] = Test System: E. COLI, Strain/Indicator: WP2 UVRA, Metabolic Activation: RAT, LIVER, S-9, AROCLOR 1254, Method: STANDARD PLATE
[8] = Test System: E. COLI, Strain/Indicator: WP2 UVRA, Metabolic Activation: RAT, LIVER, S-9, Method: STANDARD PLATE

Measured: mutagenic call

CC(=O)OC/N=[N+](/C)[O-]
inactive: Test System: E. COLI, Strain/Indicator: WP2 UVRA, Metabolic Activation: HAMSTER, LIVER, S-9, AROCLOR 1254, Method: PREINCUBATION inactive; negative | [2] inactive; negative | Test System: E. COLI, Strain/Indicator: WP2 UVRA, Metabolic Activation: HAMSTER, LIVER, S-9, Method: PREINCUBATION inactive; negative | [3] inactive; negative | Test System: E. COLI, Strain/Indicator: WP2 UVRA, Metabolic Activation: MOUSE, LIVER, S-9, AROCLOR 1254, Method: PREINCUBATION inactive; negative | [4] inactive; negative | Test System: E. COLI, Strain/Indicator: WP2 UVRA, Metabolic Activation: MOUSE, LIVER, S-9, Method: PREINCUBATION inactive; negative | [5] inactive; negative | Test System: E. COLI, Strain/Indicator: WP2 UVRA, Metabolic Activation: NONE, Method: PREINCUBATION inactive; negative | [6] inactive; negative | Test System: E. COLI, Strain/Indicator: WP2 UVRA, Metabolic Activation: RAT, LIVER, S-9, AROCLOR 1254, Method: PREINCUBATION inactive; negative | [7] inactive; negative | Test System: E. COLI, Strain/Indicator: WP2 UVRA, Metabolic Activation: RAT, LIVER, S-9, Method: PREINCUBATION inactive; negative | [8] inactive; negative
active: Test System: AMES SALMONELLA TYPHIMURIUM, Strain/Indicator: G46, Metabolic Activation: NONE, Method: PREINCUBATION active; positive | [1] active; positive | Test System: CHINESE HAMSTER V-79, Strain/Indicator: V-79/OUABAIN, Metabolic Activation: NONE, Method: STANDARD PLATE active; positive | Test System: MOUSE LYMPHOMA, Strain/Indicator: L5178Y (TK+/TK-), Metabolic Activation: NONE, Method: SUSPENSION/PLATE active; positive | Test System: MOUSE LYMPHOMA, Strain/Indicator: L5178Y (TK+/TK-), Metabolic Activation: RAT, LIVER, S-9, AROCLOR 1254, Method: SUSPENSION/PLATE active; positive

CCn1nc(C(=O)O)c(=O)c2cc3c(cc21)OCO3
active: Test System: AMES SALMONELLA TYPHIMURIUM, Strain/Indicator: TA102, Metabolic Activation: NONE, Method: STANDARD PLATE active; positive

CN(C)c1ccc(C(=O)c2ccc(N(C)C)cc2)cc1
inactive: Test System: AMES SALMONELLA TYPHIMURIUM, Strain/Indicator: TA98, Metabolic Activation: MOUSE, LIVER, S-9, AROCLOR 1254, Method: STANDARD PLATE inactive; negative | Test System: AMES SALMONELLA TYPHIMURIUM, Strain/Indicator: TA98, Metabolic Activation: MOUSE, LIVER, S-9, Method: STANDARD PLATE inactive; negative | Test System: AMES SALMONELLA TYPHIMURIUM, Strain/Indicator: TA98, Metabolic Activation: NONE, Method: STANDARD PLATE inactive; negative | Test System: AMES SALMONELLA TYPHIMURIUM, Strain/Indicator: TA98, Metabolic Activation: RAT, LIVER, S-9, Method: STANDARD PLATE inactive; negative | Test System: AMES SALMONELLA TYPHIMURIUM, Strain/Indicator: TA100, Metabolic Activation: HAMSTER, LIVER, S-9, AROCLOR 1254, Method: STANDARD PLATE inactive; negative | Test System: AMES SALMONELLA TYPHIMURIUM, Strain/Indicator: TA100, Metabolic Activation: HAMSTER, LIVER, S-9, Method: STANDARD PLATE inactive; negative | Test System: AMES SALMONELLA TYPHIMURIUM, Strain/Indicator: TA100, Metabolic Activation: MOUSE, LIVER, S-9, Method: STANDARD PLATE inactive; negative | Test System: AMES SALMONELLA TYPHIMURIUM, Strain/Indicator: TA100, Metabolic Activation: NONE, Method: STANDARD PLATE inactive; negative | Test System: AMES SALMONELLA TYPHIMURIUM, Strain/Indicator: TA100, Metabolic Activation: RAT, LIVER, S-9, AROCLOR 1254, Method: STANDARD PLATE inactive; negative | Test System: AMES SALMONELLA TYPHIMURIUM, Strain/Indicator: TA100, Metabolic Activation: RAT, LIVER, S-9, Method: STANDARD PLATE inactive; negative | Test System: AMES SALMONELLA TYPHIMURIUM, Strain/Indicator: TA1535, Metabolic Activation: HAMSTER, LIVER, S-9, AROCLOR 1254, Method: STANDARD PLATE inactive; negative | Test System: AMES SALMONELLA TYPHIMURIUM, Strain/Indicator: TA1535, Metabolic Activation: HAMSTER, LIVER, S-9, Method: STANDARD PLATE inactive; negative | Test System: AMES SALMONELLA TYPHIMURIUM, Strain/Indicator: TA1535, Metabolic Activation: MOUSE, LIVER, S-9, AROCLOR 1254, Method: STANDARD PLATE inactive; negative | Test System: AMES SALMONELLA TYPHIMURIUM, Strain/Indicator: TA1535, Metabolic Activation: MOUSE, LIVER, S-9, Method: STANDARD PLATE inactive; negative | [1] inactive; negative | Test System: AMES SALMONELLA TYPHIMURIUM, Strain/Indicator: TA1535, Metabolic Activation: RAT, LIVER, S-9, AROCLOR 1254, Method: STANDARD PLATE inactive; negative | Test System: AMES SALMONELLA TYPHIMURIUM, Strain/Indicator: TA1535, Metabolic Activation: RAT, LIVER, S-9, Method: STANDARD PLATE inactive; negative | Test System: AMES SALMONELLA TYPHIMURIUM, Strain/Indicator: TA1537, Metabolic Activation: HAMSTER, LIVER, S-9, AROCLOR 1254, Method: STANDARD PLATE inactive; negative | Test System: AMES SALMONELLA TYPHIMURIUM, Strain/Indicator: TA1537, Metabolic Activation: MOUSE, LIVER, S-9, AROCLOR 1254, Method: STANDARD PLATE inactive; negative | Test System: AMES SALMONELLA TYPHIMURIUM, Strain/Indicator: TA1537, Metabolic Activation: MOUSE, LIVER, S-9, Method: STANDARD PLATE inactive; negative | Test System: AMES SALMONELLA TYPHIMURIUM, Strain/Indicator: TA1537, Metabolic Activation: NONE, Method: STANDARD PLATE inactive; negative | Test System: AMES SALMONELLA TYPHIMURIUM, Strain/Indicator: TA1537, Metabolic Activation: RAT, LIVER, S-9, AROCLOR 1254, Method: STANDARD PLATE inactive; negative | Test System: AMES SALMONELLA TYPHIMURIUM, Strain/Indicator: TA1537, Metabolic Activation: RAT, LIVER, S-9, Method: STANDARD PLATE inactive; negative | Test System: AMES SALMONELLA TYPHIMURIUM, Strain/Indicator: TA1538, Metabolic Activation: MOUSE, LIVER, S-9, Method: STANDARD PLATE inactive; negative | Test System: AMES SALMONELLA TYPHIMURIUM, Strain/Indicator: TA1538, Metabolic Activation: NONE, Method: STANDARD PLATE inactive; negative | Test System: AMES SALMONELLA TYPHIMURIUM, Strain/Indicator: TA1538, Metabolic Activation: RAT, LIVER, S-9, Method: STANDARD PLATE inactive; negative | [2] inactive; negative | [3] inactive; negative | [4] inactive; negative | [5] inactive; negative | [6] inactive; negative | [7] inactive; negative | [8] inactive; negative
